Test results reported in patent US8067439B2, “Biphenyl compounds useful as muscarinic receptor antagonists” (Theravance, Inc., priority 2004, dated 2011).

Target: T1, M3 muscarinic receptor subtype (hM3) (Homo sapiens, UniProt P20309)
T1 construct: expressed in transfected cells
Experiment: Radioligand binding assay ([3H]-NMS displacement, CHO cell membranes)
Conditions: [3H]-NMS 1 nM
Protocol: CHO cell lines stably expressing cloned human hM1, hM2, hM3 and hM4 muscarinic receptor subtypes, respectively, were grown to near confluency in medium consisting of HAM's F-12 supplemented with 10% FBS and 250 μg/mL Geneticin. The cells were grown in a 5% CO2, 37° C. incubator and lifted with 2 mM EDTA in dPBS. Cells were collected by 5 minute centrifugation at 650×g, and cell pellets were either stored frozen at −80° C. or membranes were prepared immediately. For membrane preparation, cell pellets were resuspended in lysis buffer and homogenized with a Polytron PT-2100 tissue disrupter (Kinematica AG; 20 seconds×2 bursts). Crude membranes were centrifuged at 40,000×g for 15 minutes at 4° C. […] The protein concentration of the membrane suspension was determined by the method described in Lowry, O. et al., Journal of Biochemistry 193:265 (1951). […]
Radioligand binding assays were performed in 96-well microtiter plates in a total assay volume of 100 μL. […] Filter plates were rinsed three times with wash buffer (10 mM HEPES) to remove unbound radioactivity. […] The plates were then counted in a PerkinElmer Topcount liquid scintillation counter (PerkinElmer Inc., Wellesley, Mass.). Binding data were analyzed by nonlinear regression analysis with the GraphPad Prism Software package (GraphPad Software, Inc., San Diego, Calif.) using the one-site competition model. […]

T1 sequence (P20309 whole entry): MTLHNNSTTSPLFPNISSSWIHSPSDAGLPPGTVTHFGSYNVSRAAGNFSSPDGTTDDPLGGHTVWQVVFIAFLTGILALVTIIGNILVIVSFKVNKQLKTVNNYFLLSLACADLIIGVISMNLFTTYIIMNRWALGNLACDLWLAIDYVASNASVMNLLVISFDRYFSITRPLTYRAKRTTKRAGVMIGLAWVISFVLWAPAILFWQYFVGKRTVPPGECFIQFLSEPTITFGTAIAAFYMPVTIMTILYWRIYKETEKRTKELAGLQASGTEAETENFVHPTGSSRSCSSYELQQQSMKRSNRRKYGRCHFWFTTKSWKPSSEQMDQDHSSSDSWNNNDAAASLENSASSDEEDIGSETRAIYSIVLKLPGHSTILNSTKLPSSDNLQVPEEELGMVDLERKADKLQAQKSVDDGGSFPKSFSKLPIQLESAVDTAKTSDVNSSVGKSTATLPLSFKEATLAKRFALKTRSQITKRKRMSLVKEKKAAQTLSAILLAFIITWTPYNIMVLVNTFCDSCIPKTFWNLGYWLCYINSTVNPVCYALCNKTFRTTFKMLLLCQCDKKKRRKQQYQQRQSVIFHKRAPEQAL

Q: `CN(CCN1CCC(OC(=O)Nc2ccccc2-c2ccccc2)CC1)C(=O)CCCCCN1CCC(C(N)=O)CC1` [Example 1, Biphenyl-2-ylcarbamic Acid 1-(2-{[6-(4-Carbamoylpiperidin-1-yl)hexanoyl]methylamino}ethyl)piperidin-4-yl Ester] was tested. Which Ki did it give?
A: < 5 nM
